Results as given in article PMC12350170, “Structural basis for the synergistic assembly of the snRNA export complex” (Nature Structural & Molecular Biology, 2025).
pKd: −log10 of the molar value.

Legend:
Assay type in all cases: binding
[1] = biological target: T1, CBC in complex with PHAX^103–196 (Homo sapiens, UniProt P52298); assay: isothermal titration calorimetry
T1 construct: gene NCBP2; CBC (CBP80ΔNLS lacking N-terminal 19 residues; CBP20, tag cleaved) plus PHAX residues 103-196 made as His-MBP fusion in E. coli, not phosphorylated; Phosphorylated adapter RNA export protein
T1 sequence (Q9H814 103-196 partner, one chain of several): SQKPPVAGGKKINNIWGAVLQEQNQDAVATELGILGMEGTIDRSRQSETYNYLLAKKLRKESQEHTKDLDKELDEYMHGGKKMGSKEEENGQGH

[2] = biological target: T2, CBC (CBP80ΔNLS–CBP20) (Homo sapiens, UniProt P52298); assay: isothermal titration calorimetry
T2 construct: gene NCBP2; heterodimer; CBP80ΔNLS (lacks N-terminal 19 residues) from High Five insect cells; CBP20 as His-GST fusion from E. coli, tag cleaved by TEV
T2 sequence (P52298 2-156): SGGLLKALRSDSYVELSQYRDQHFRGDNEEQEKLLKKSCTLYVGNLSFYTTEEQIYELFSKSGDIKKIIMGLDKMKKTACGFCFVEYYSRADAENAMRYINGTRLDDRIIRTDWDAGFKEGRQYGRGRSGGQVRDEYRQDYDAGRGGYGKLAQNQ
T2 sequence (Q09161 20-790 partner): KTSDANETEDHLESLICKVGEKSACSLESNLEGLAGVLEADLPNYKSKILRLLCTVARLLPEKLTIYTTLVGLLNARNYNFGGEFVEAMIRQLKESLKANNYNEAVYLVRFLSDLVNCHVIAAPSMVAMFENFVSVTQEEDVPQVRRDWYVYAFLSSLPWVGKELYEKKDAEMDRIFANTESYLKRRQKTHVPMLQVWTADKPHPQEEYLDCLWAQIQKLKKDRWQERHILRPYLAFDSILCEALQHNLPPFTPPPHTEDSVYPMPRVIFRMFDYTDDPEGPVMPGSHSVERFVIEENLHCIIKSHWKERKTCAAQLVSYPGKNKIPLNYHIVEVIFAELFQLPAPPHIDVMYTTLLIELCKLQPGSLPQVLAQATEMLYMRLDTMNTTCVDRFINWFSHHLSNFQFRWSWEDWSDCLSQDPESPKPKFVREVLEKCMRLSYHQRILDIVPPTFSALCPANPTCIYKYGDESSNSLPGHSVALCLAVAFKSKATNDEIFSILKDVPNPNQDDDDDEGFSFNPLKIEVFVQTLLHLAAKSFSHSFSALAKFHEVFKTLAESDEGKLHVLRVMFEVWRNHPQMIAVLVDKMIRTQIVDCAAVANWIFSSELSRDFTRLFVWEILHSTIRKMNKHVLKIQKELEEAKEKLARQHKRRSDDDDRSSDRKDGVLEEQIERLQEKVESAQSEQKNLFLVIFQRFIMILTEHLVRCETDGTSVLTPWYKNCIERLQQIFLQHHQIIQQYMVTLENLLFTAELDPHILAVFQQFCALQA

[3] = biological target: T3, Ran (RanGTP) in the snRNA export complex with CRM1, PHAX, CBC (Homo sapiens, UniProt P62826, Q69L); assay: cryo-EM structure of the complex; conditions: Mg2+ present; Ran nucleotide site; complex with CRM1, phosphorylated PHAX, CBC and capped RNA
T3 construct: Ran Q69L as His-tag fusion from E. coli, loaded with GTP; His-CRM1; CK2-phosphorylated full-length PHAX; CBP80ΔNLS–CBP20; capped 14-nt RNA; with Exportin-1; Phosphorylated adapter RNA export protein

| Compound | pKd [1] | pKd [2] | cryo-EM structure of the complex [3] |
| --- | --- | --- | --- |
| C[n+]1cn([C@@H]2O[C@H](COP(=O)(O)OP(=O)(O)OP(=O)(O)OC[C@H]3O[C@@H](n4cnc5c(=O)[nH]c(N)nc54)[C@H](O)[C@@H]3O)[C@@H](O)[C@H]2O)c2nc(N)[nH]c(=O)c21 [m^7GpppG] | 7.00 | 7.02 |  |
| C[n+]1cn([C@@H]2O[C@H](COP(=O)(O)OP(=O)(O)OP(=O)(O)O)[C@@H](O)[C@H]2O)c2nc(N)[nH]c(=O)c21 [m^7GTP] |  | 6.52 |  |
| Nc1nc2c(ncn2[C@@H]2O[C@H](COP(=O)(O)OP(=O)(O)OP(=O)(O)O)[C@@H](O)[C@H]2O)c(=O)[nH]1 [GTP] |  |  | the catalytic mutant of Ran (Q69L) bound to GTP |
